In ChEMBL document CHEMBL1649134, “Occurrence of efflux mechanism and cephalosporinase variant in a population of Enterobacter aerogenes and Klebsiella pneumoniae isolates producing extended-spectrum beta-lactamases” (2009):
In brackets after ≈: the same amount, converted by molar mass.

Legend:
Assay type in all cases: functional
Klebsiella pneumoniae [1] = experiment: Antimicrobial activity against multidrug resistant Klebsiella pneumoniae isolate 1 by broth dilution method in presence of 26.3 mg/L efflux pump inhibitor phenylalanine-arginine-beta-naphthylamide
Klebsiella aerogenes [2] = experiment: Antimicrobial activity against multidrug resistant Enterobacter aerogenes isolate 26 by broth dilution method
Klebsiella pneumoniae [3] = experiment: Antimicrobial activity against multidrug resistant Klebsiella pneumoniae isolate 9 by broth dilution method
Klebsiella aerogenes [4] = experiment: Antimicrobial activity against multidrug resistant Enterobacter aerogenes isolate 19 by broth dilution method in presence of 26.3 mg/L efflux pump inhibitor phenylalanine-arginine-beta-naphthylamide
Klebsiella aerogenes [5] = experiment: Antimicrobial activity against multidrug resistant Enterobacter aerogenes isolate 7 by broth dilution method
Klebsiella aerogenes [6] = experiment: Antimicrobial activity against multidrug resistant Enterobacter aerogenes isolate 11 by broth dilution method
Klebsiella aerogenes [7] = experiment: Antimicrobial activity against multidrug resistant Enterobacter aerogenes isolate 11 by broth dilution method in presence of 26.3 mg/L efflux pump inhibitor phenylalanine-arginine-beta-naphthylamide
Klebsiella aerogenes [8] = experiment: Antimicrobial activity against multidrug resistant Enterobacter aerogenes isolate 26 by broth dilution method in presence of 26.3 mg/L efflux pump inhibitor phenylalanine-arginine-beta-naphthylamide
Klebsiella aerogenes [9] = experiment: Antimicrobial activity against multidrug resistant Enterobacter aerogenes isolate 2 by broth dilution method in presence of 26.3 mg/L efflux pump inhibitor phenylalanine-arginine-beta-naphthylamide
Klebsiella aerogenes [10] = experiment: Antimicrobial activity against multidrug resistant Enterobacter aerogenes isolate 14 by broth dilution method
Klebsiella aerogenes [11] = experiment: Antimicrobial activity against multidrug resistant Enterobacter aerogenes isolate 22 by broth dilution method in presence of 26.3 mg/L efflux pump inhibitor phenylalanine-arginine-beta-naphthylamide
Klebsiella aerogenes [12] = experiment: Antimicrobial activity against multidrug resistant Enterobacter aerogenes isolate 4 by broth dilution method
Klebsiella pneumoniae [13] = experiment: Antimicrobial activity against multidrug resistant Klebsiella pneumoniae isolate 12 by broth dilution method
Klebsiella aerogenes [14] = experiment: Antimicrobial activity against multidrug resistant Enterobacter aerogenes isolate 17 by broth dilution method
Klebsiella aerogenes [15] = experiment: Antimicrobial activity against multidrug resistant Enterobacter aerogenes isolate 13 by broth dilution method in presence of 26.3 mg/L efflux pump inhibitor phenylalanine-arginine-beta-naphthylamide
Klebsiella aerogenes [16] = experiment: Antimicrobial activity against multidrug resistant Enterobacter aerogenes isolate 27 by broth dilution method
Klebsiella aerogenes [17] = experiment: Antimicrobial activity against multidrug resistant Enterobacter aerogenes isolate 23 by broth dilution method in presence of 26.3 mg/L efflux pump inhibitor phenylalanine-arginine-beta-naphthylamide
Klebsiella aerogenes [18] = experiment: Antimicrobial activity against multidrug resistant Enterobacter aerogenes isolate 10 by broth dilution method in presence of 26.3 mg/L efflux pump inhibitor phenylalanine-arginine-beta-naphthylamide
Klebsiella aerogenes [19] = experiment: Antimicrobial activity against multidrug resistant Enterobacter aerogenes isolate 20 by broth dilution method
Klebsiella pneumoniae [20] = experiment: Antimicrobial activity against multidrug resistant Klebsiella pneumoniae isolate 3 by broth dilution method
Klebsiella aerogenes [21] = experiment: Antimicrobial activity against multidrug resistant Enterobacter aerogenes isolate 12 by broth dilution method
Klebsiella pneumoniae [22] = experiment: Antimicrobial activity against multidrug resistant Klebsiella pneumoniae isolate 15 by broth dilution method in presence of 26.3 mg/L efflux pump inhibitor phenylalanine-arginine-beta-naphthylamide
Klebsiella pneumoniae [23] = experiment: Antimicrobial activity against multidrug resistant Klebsiella pneumoniae isolate 6 by broth dilution method
Klebsiella aerogenes [24] = experiment: Antimicrobial activity against multidrug resistant Enterobacter aerogenes isolate 18 by broth dilution method
Klebsiella aerogenes [25] = experiment: Antimicrobial activity against multidrug resistant Enterobacter aerogenes isolate 8 by broth dilution method in presence of 26.3 mg/L efflux pump inhibitor phenylalanine-arginine-beta-naphthylamide
Klebsiella aerogenes [26] = experiment: Antimicrobial activity against multidrug resistant Enterobacter aerogenes isolate 16 by broth dilution method
Klebsiella aerogenes [27] = experiment: Antimicrobial activity against multidrug resistant Enterobacter aerogenes isolate 24 by broth dilution method in presence of 26.3 mg/L efflux pump inhibitor phenylalanine-arginine-beta-naphthylamide
Klebsiella aerogenes [28] = experiment: Antimicrobial activity against multidrug resistant Enterobacter aerogenes isolate 6 by broth dilution method in presence of 26.3 mg/L efflux pump inhibitor phenylalanine-arginine-beta-naphthylamide
Klebsiella aerogenes [29] = experiment: Antimicrobial activity against multidrug resistant Enterobacter aerogenes isolate 19 by broth dilution method
Klebsiella aerogenes [30] = experiment: Antimicrobial activity against multidrug resistant Enterobacter aerogenes isolate 2 by broth dilution method
Klebsiella aerogenes [31] = experiment: Antimicrobial activity against multidrug resistant Enterobacter aerogenes isolate 22 by broth dilution method
Klebsiella aerogenes [32] = experiment: Antimicrobial activity against multidrug resistant Enterobacter aerogenes isolate 27 by broth dilution method in presence of 26.3 mg/L efflux pump inhibitor phenylalanine-arginine-beta-naphthylamide
Klebsiella pneumoniae [33] = experiment: Antimicrobial activity against multidrug resistant Klebsiella pneumoniae isolate 16 by broth dilution method in presence of 26.3 mg/L efflux pump inhibitor phenylalanine-arginine-beta-naphthylamide
Klebsiella aerogenes [34] = experiment: Antimicrobial activity against multidrug resistant Enterobacter aerogenes isolate 25 by broth dilution method
Klebsiella aerogenes [35] = experiment: Antimicrobial activity against multidrug resistant Enterobacter aerogenes isolate 9 by broth dilution method in presence of 26.3 mg/L efflux pump inhibitor phenylalanine-arginine-beta-naphthylamide
Klebsiella aerogenes [36] = experiment: Antimicrobial activity against multidrug resistant Enterobacter aerogenes isolate 7 by broth dilution method in presence of 26.3 mg/L efflux pump inhibitor phenylalanine-arginine-beta-naphthylamide
Klebsiella aerogenes [37] = experiment: Antimicrobial activity against multidrug resistant Enterobacter aerogenes isolate 15 by broth dilution method in presence of 26.3 mg/L efflux pump inhibitor phenylalanine-arginine-beta-naphthylamide
Klebsiella aerogenes [38] = experiment: Antimicrobial activity against multidrug resistant Enterobacter aerogenes isolate 23 by broth dilution method
Klebsiella aerogenes [39] = experiment: Antimicrobial activity against multidrug resistant Enterobacter aerogenes isolate 5 by broth dilution method in presence of 26.3 mg/L efflux pump inhibitor phenylalanine-arginine-beta-naphthylamide
Klebsiella aerogenes [40] = experiment: Antimicrobial activity against multidrug resistant Enterobacter aerogenes isolate 1 by broth dilution method in presence of 26.3 mg/L efflux pump inhibitor phenylalanine-arginine-beta-naphthylamide
Klebsiella aerogenes [41] = experiment: Antimicrobial activity against multidrug resistant Enterobacter aerogenes isolate 1 by broth dilution method
Klebsiella pneumoniae [42] = experiment: Antimicrobial activity against multidrug resistant Klebsiella pneumoniae isolate 7 by broth dilution method
Klebsiella aerogenes [43] = experiment: Antimicrobial activity against multidrug resistant Enterobacter aerogenes isolate 8 by broth dilution method
Klebsiella pneumoniae [44] = experiment: Antimicrobial activity against multidrug resistant Klebsiella pneumoniae isolate 6 by broth dilution method in presence of 26.3 mg/L efflux pump inhibitor phenylalanine-arginine-beta-naphthylamide
Klebsiella aerogenes [45] = experiment: Antimicrobial activity against multidrug resistant Enterobacter aerogenes isolate 4 by broth dilution method in presence of 26.3 mg/L efflux pump inhibitor phenylalanine-arginine-beta-naphthylamide
Klebsiella pneumoniae [46] = experiment: Antimicrobial activity against multidrug resistant Klebsiella pneumoniae isolate 8 by broth dilution method
Klebsiella pneumoniae [47] = experiment: Antimicrobial activity against multidrug resistant Klebsiella pneumoniae isolate 12 by broth dilution method in presence of 26.3 mg/L efflux pump inhibitor phenylalanine-arginine-beta-naphthylamide
Klebsiella pneumoniae [48] = experiment: Antimicrobial activity against multidrug resistant Klebsiella pneumoniae ATCC 11296 by broth dilution method
Klebsiella aerogenes [49] = experiment: Antimicrobial activity against multidrug resistant Enterobacter aerogenes isolate 9 by broth dilution method
Klebsiella pneumoniae [50] = experiment: Antimicrobial activity against multidrug resistant Klebsiella pneumoniae isolate 16 by broth dilution method

O=C(N[C@H](CO)[C@H](O)c1ccc([N+](=O)[O-])cc1)C(Cl)Cl [CHLORAMPHENICOL]
MIC (Klebsiella pneumoniae [1]): 8 µg/mL
MIC (Klebsiella aerogenes [2]): 256 µg/mL (≈ 792 µM)
MIC (Klebsiella pneumoniae [3]): 64 µg/mL (≈ 198 µM)
MIC (Klebsiella aerogenes [4]): 64 µg/mL
MIC (Klebsiella aerogenes [5]): 1020 µg/mL (≈ 3170 µM)
MIC (Klebsiella aerogenes [6]): 512 µg/mL (≈ 1580 µM)
MIC (Klebsiella aerogenes [7]): 64 µg/mL
MIC (Klebsiella aerogenes [8]): 32 µg/mL
MIC (Klebsiella aerogenes [9]): 64 µg/mL
MIC (Klebsiella aerogenes [10]): 512 µg/mL (≈ 1580 µM)
MIC (Klebsiella aerogenes [11]): 128 µg/mL
MIC (Klebsiella aerogenes [12]): 1020 µg/mL (≈ 3170 µM)
MIC (Klebsiella pneumoniae [13]): 64 µg/mL (≈ 198 µM)
MIC (Klebsiella aerogenes [14]): 1020 µg/mL (≈ 3170 µM)
MIC (Klebsiella aerogenes [15]): 64 µg/mL
MIC (Klebsiella aerogenes [16]): 1020 µg/mL (≈ 3170 µM)
MIC (Klebsiella aerogenes [17]): 64 µg/mL
MIC (Klebsiella aerogenes [18]): 128 µg/mL
MIC (Klebsiella aerogenes [19]): 1020 µg/mL (≈ 3170 µM)
MIC (Klebsiella pneumoniae [20]): 4 µg/mL (≈ 12.4 µM)
MIC (Klebsiella aerogenes [21]): 1020 µg/mL (≈ 3170 µM)
MIC (Klebsiella pneumoniae [22]): 2 µg/mL
MIC (Klebsiella pneumoniae [23]): 32 µg/mL (≈ 99 µM)
MIC (Klebsiella aerogenes [24]): 32 µg/mL (≈ 99 µM)
MIC (Klebsiella aerogenes [25]): 64 µg/mL
MIC (Klebsiella aerogenes [26]): 512 µg/mL (≈ 1580 µM)
MIC (Klebsiella aerogenes [27]): 64 µg/mL
MIC (Klebsiella aerogenes [28]): 4 µg/mL
MIC (Klebsiella aerogenes [29]): 1020 µg/mL (≈ 3170 µM)
MIC (Klebsiella aerogenes [30]): 512 µg/mL (≈ 1580 µM)
MIC (Klebsiella aerogenes [31]): 1020 µg/mL (≈ 3170 µM)
MIC (Klebsiella aerogenes [32]): 128 µg/mL
MIC (Klebsiella pneumoniae [33]): 4 µg/mL
MIC (Klebsiella aerogenes [34]): 512 µg/mL (≈ 1580 µM)
MIC (Klebsiella aerogenes [35]): 64 µg/mL
MIC (Klebsiella aerogenes [36]): 128 µg/mL
MIC (Klebsiella aerogenes [37]): 64 µg/mL
MIC (Klebsiella aerogenes [38]): 512 µg/mL (≈ 1580 µM)
MIC (Klebsiella aerogenes [39]): 128 µg/mL
MIC (Klebsiella aerogenes [40]): 128 µg/mL
MIC (Klebsiella aerogenes [41]): 1020 µg/mL (≈ 3170 µM)
MIC (Klebsiella pneumoniae [42]): 32 µg/mL (≈ 99 µM)
MIC (Klebsiella aerogenes [43]): 256 µg/mL (≈ 792 µM)
MIC (Klebsiella pneumoniae [44]): 2 µg/mL
MIC (Klebsiella aerogenes [45]): 128 µg/mL
MIC (Klebsiella pneumoniae [46]): 32 µg/mL (≈ 99 µM)
MIC (Klebsiella pneumoniae [47]): 2 µg/mL
MIC (Klebsiella pneumoniae [48]): 4 µg/mL (≈ 12.4 µM)
MIC (Klebsiella aerogenes [49]): 256 µg/mL (≈ 792 µM)

CCn1cc(C(=O)O)c(=O)c2cc(F)c(N3CCNCC3)cc21 [NORFLOXACIN]
MIC (Klebsiella pneumoniae [1]): 2 µg/mL
MIC (Klebsiella aerogenes [2]): 256 µg/mL (≈ 802 µM)
MIC (Klebsiella pneumoniae [3]): 1 µg/mL (≈ 3.13 µM)
MIC (Klebsiella aerogenes [4]): 128 µg/mL
MIC (Klebsiella aerogenes [5]): 256 µg/mL (≈ 802 µM)
MIC (Klebsiella aerogenes [6]): 512 µg/mL (≈ 1600 µM)
MIC (Klebsiella aerogenes [7]): 256 µg/mL
MIC (Klebsiella aerogenes [8]): 128 µg/mL
MIC (Klebsiella aerogenes [9]): 256 µg/mL
MIC (Klebsiella aerogenes [10]): 512 µg/mL (≈ 1600 µM)
MIC (Klebsiella aerogenes [11]): 128 µg/mL
MIC (Klebsiella aerogenes [12]): 512 µg/mL (≈ 1600 µM)
MIC (Klebsiella pneumoniae [13]): 8 µg/mL (≈ 25.1 µM)
MIC (Klebsiella pneumoniae [50]): 1 µg/mL (≈ 3.13 µM)
MIC (Klebsiella aerogenes [14]): > 512 µg/mL
MIC (Klebsiella aerogenes [15]): 512 µg/mL
MIC (Klebsiella aerogenes [16]): 256 µg/mL (≈ 802 µM)
MIC (Klebsiella aerogenes [17]): 256 µg/mL
MIC (Klebsiella aerogenes [18]): 256 µg/mL
MIC (Klebsiella aerogenes [19]): 512 µg/mL (≈ 1600 µM)
MIC (Klebsiella pneumoniae [20]): 128 µg/mL (≈ 401 µM)
MIC (Klebsiella aerogenes [21]): 512 µg/mL (≈ 1600 µM)
MIC (Klebsiella pneumoniae [22]): 256 µg/mL
MIC (Klebsiella pneumoniae [23]): 1 µg/mL (≈ 3.13 µM)
MIC (Klebsiella aerogenes [24]): 128 µg/mL (≈ 401 µM)
MIC (Klebsiella aerogenes [25]): 128 µg/mL
MIC (Klebsiella aerogenes [26]): 512 µg/mL (≈ 1600 µM)
MIC (Klebsiella aerogenes [27]): 128 µg/mL
MIC (Klebsiella aerogenes [28]): 2 µg/mL
MIC (Klebsiella aerogenes [29]): 128 µg/mL (≈ 401 µM)
MIC (Klebsiella aerogenes [30]): 256 µg/mL (≈ 802 µM)
MIC (Klebsiella aerogenes [31]): 256 µg/mL (≈ 802 µM)
MIC (Klebsiella aerogenes [32]): 128 µg/mL
MIC (Klebsiella pneumoniae [33]): 0.5 µg/mL
MIC (Klebsiella aerogenes [34]): 256 µg/mL (≈ 802 µM)
MIC (Klebsiella aerogenes [35]): 128 µg/mL
MIC (Klebsiella aerogenes [36]): 256 µg/mL
MIC (Klebsiella aerogenes [37]): 128 µg/mL
MIC (Klebsiella aerogenes [38]): 512 µg/mL (≈ 1600 µM)
MIC (Klebsiella aerogenes [39]): 512 µg/mL
MIC (Klebsiella aerogenes [40]): 256 µg/mL
MIC (Klebsiella aerogenes [41]): 256 µg/mL (≈ 802 µM)
MIC (Klebsiella pneumoniae [42]): 0.25 µg/mL (≈ 0.783 µM)
MIC (Klebsiella aerogenes [43]): 128 µg/mL (≈ 401 µM)
MIC (Klebsiella pneumoniae [44]): 0.25 µg/mL
MIC (Klebsiella aerogenes [45]): 512 µg/mL
MIC (Klebsiella pneumoniae [46]): 2 µg/mL (≈ 6.26 µM)
MIC (Klebsiella pneumoniae [47]): 0.25 µg/mL
MIC (Klebsiella pneumoniae [48]): 0.5 µg/mL (≈ 1.57 µM)
MIC (Klebsiella aerogenes [49]): 128 µg/mL (≈ 401 µM)
